{
  "source": "patent US9643988B2",
  "about": "“Compounds having low ionization energy” (THE ARIZONA BOARD OF REGENTS ON BEHALF OF THE UNIVERSITY OF …, priority 2013, dated 2017)",
  "key": {"[1]": {"experiment": "Differential pulse voltammetry in THF vs Ag/AgCl", "assay_type": "physicochemical", "conditions": "DPV peak", "procedure": "^1H NMR spectra were recorded on a Mercury 300 spectrometer with chemical shifts referenced to the protonated solvent residue. Mass spectrometry data (electrospray ionization, ESI) were recorded at the Laboratory for Biological Mass Spectrometry at Texas A&M University using an MDS Series Qstar Pulsar with a spray voltage of 5 kV. Elemental analyses were performed by Robertson Microlit Laboratories, Inc., Madison, N.J. on crystalline samples that were previously washed with cold hexanes and dried overnight under vacuum. Infrared spectra were recorded in a Perkin-Elmer 16PC FT IR spectrophotometer using KBr pellets. Electronic spectra were recorded on a Shimadzu UV-2501 PC spectrophotometer. The differential pulse voltammograms were collected using a CH Instruments model-CHI620A electrochemical analyzer in a 0.1 M Bu^n4NPF6 solution in THF, using Pt working and auxiliary electrodes, a Ag/AgCl reference electrode, and a scan rate of 100 mV/s. All potential values are referenced to the Ag/AgCl electrode, and under the present experimental conditions, the E1/2 for the Fc^+/Fc couple consistently occurred at +440 mV."}, "[2]": {"experiment": "Gas-phase photoelectron spectroscopy (PES) of the δ bond ionization", "assay_type": "physicochemical", "conditions": "for onset ionization energy (IEonset, PESonset): first ionization band; for vertical ionization energy (VIE, PESvertical): position of main Gaussian peak", "procedure": "The gas-phase PES of W2(TMhpp)4 and W2(TEhpp)4 were recorded using an instrument that features a 36-cm radius, 8-cm gap hemispherical analyzer, and custom-designed excitation source, sample cells, detection and control electronics, and methods that have been described, for example, in Rev. Sci. Instrum. 1986, 57, 2366 and J. Am. Chem. Soc. 1998, 120, 3382-3386. The temperature was monitored using a “K”-type thermocouple passed through a vacuum feed through and attached directly to the sample cell. Samples of W2(TMhpp)4 and W2(TEhpp)4 were loaded into stainless steel cells and placed in the instrument using rigorous air-sensitive techniques. The data collection focused on determining the δ bond ionization energy. To avoid decomposition in the sample chamber of the cell, ampoules containing the samples were broken off and placed directly in the ionization chamber.\nComplete spectra were collected every few minutes.\nThe ^2P3/2 peak of argon at 15.76 eV ionization energy is typically used for internal energy calibration, but over the course of the experiment sensitivity to the ^2P3/2 peak of Ar was lost. This often happens with molecules that are strong reductants, presumably because of the very large change in work function of the spectrometer when the sample condenses on the spectrometer surfaces. At this point the lamp was adjusted to emit He II photons in addition to He I photons. This allowed observation of the He self-ionization (by He II photons) at an apparent binding energy of 4.99 eV in the He I spectrum. This very sharp line is a convenient internal energy calibrant and is preferable for the calibration of low-energy ionizations. The resolution, as measured by the Ar peak before it was no longer visible, was approximately 0.030 eV. The resolution for the W2(TMhpp)4 and W2(TEhpp)4 experiments, as measured by the He self-ionization, was 71 meV and 88 meV, respectively. Over the course of two separate data collections of W2(TMhpp)4, approximately 800 counts of the full He I spectrum (Graphic S1) and an additional 400 counts of a close-up on the δ bond ionization were collected. For W2(TEhpp)4 approximately 400 counts of the δ bond ionization were collected.\nThe ionization bands are represented analytically with asymmetric Gaussian peaks. As is typical for the first ionization bands of M2(hpp)4 molecules, a weak shoulder is observed on the high ionization energy side of the peak that necessitates the use of a second asymmetric Gaussian component to reasonably account for the total contour of the ionization intensity. The additional ionization intensity on the high ionization energy side of the first band is ascribed to the different puckered conformations that the hpp ligands can adopt in the molecules. […]"}, "[3]": {"experiment": "Solubility in dry organic solvents", "assay_type": "physicochemical"}, "[4]": {"conditions": "reported value for comparison, cited from earlier work; for reported E1/2 / observed peak position for W2^5+/4+: THF"}, "[5]": {"conditions": "vacuum"}, "[6]": {"experiment": "Ionization energies of comparison substances", "assay_type": "physicochemical", "conditions": "difference versus compounds 3 and 4"}, "[7]": {"experiment": "Literature potentials and solvation energy of comparison substances", "assay_type": "physicochemical", "conditions": "difference versus compounds 3 and 4"}, "[8]": {"conditions": "comparison value; cited from earlier work"}, "[9]": {"conditions": "cited from earlier work"}, "[10]": {"conditions": "common dry solvents such as THF, toluene, and benzene"}, "[11]": {"conditions": "non-halogenated, non-protonated solvents such as THF, toluene, benzene and even hexanes"}},
  "note": "“And” between values parts separate entries of the source, which are not always exact repeats. Equal entries are not always repeated. Where two headings read alike, the source gives them in different places.",
  "data": [
    {"molecule": "CCC1(CC)CN2CC(CC)(CC)C[N+]3=C2[N](C1)[W-2]124([Cl])[N]5CC(CC)(CC)CN6CC(CC)(CC)C[N+](=C65)[W-2]31([Cl])([N+]1=C3N(CC(CC)(CC)C[N]32)CC(CC)(CC)C1)[N+]1=C2N(CC(CC)(CC)C[N]24)CC(CC)(CC)C1", "note": "[compound 2, W2(TEhpp)4Cl2]", "values": [
      {"measurement": "E1/2(1), W2^6+/5+ process", "setting": "[1]", "value": "−0.99", "unit": "V"},
      {"measurement": "E1/2(2), W2^5+/4+ process", "setting": "[1]", "value": "−1.90", "unit": "V"}
    ]},
    {"molecule": "C1CN2CCC[N+]3=C2[N](C1)[W-2]124[N]5CCCN6CCC[N+](=C65)[W-2]31([N+]1=C3N(CCC[N]32)CCC1)[N+]1=C2N(CCC[N]24)CCC1", "note": "[W2(hpp)4, reference compound]", "values": [
      {"measurement": "onset ionization energy (IEonset, PESonset)", "setting": "[2]", "value": "3.51 eV and 3.51±0.05 eV"},
      {"measurement": "vertical ionization energy (VIE, PESvertical)", "setting": "[2]", "value": 3.76, "unit": "eV"},
      {"measurement": "solubility", "setting": "[3]; non-reactive organic solvents", "value": "poor solubility"},
      {"measurement": "reported E1/2 / observed peak position for W2^5+/4+", "setting": "[4]", "value": "−1.81", "unit": "V"},
      {"measurement": "reported E1/2 for W2^6+/5+", "setting": "[4]", "value": "−0.97", "unit": "V"}
    ]},
    {"molecule": "W2(TMhpp)4 [compound 3]", "values": [
      {"measurement": "solubility properties compared to decamethylcobaltocene", "setting": "[3]", "value": "compare very favorably"},
      {"measurement": "solubility", "setting": "[3]; [10]", "value": "very soluble"},
      {"measurement": "solubility", "setting": "[3]; hexanes", "value": "Some solubility"},
      {"measurement": "solubility", "setting": "[3]; [11]", "value": "very soluble"},
      {"measurement": "decomposition during PES measurement", "setting": "[5]; 216 to 271° C., 2½ h", "value": "In neither case was there any evidence of decomposition"},
      {"measurement": "decomposition during PES measurement", "setting": "[5]; 216 to 271° C., 2½ h, listed as W2(TMhpp)4", "value": "without evidence of decomposition"}
    ]},
    {"molecule": "C1CN=C2[N-]CCCN2C1.C1CN=C2[N-]CCCN2C1.C1CN=C2[N-]CCCN2C1.C1CN=C2[N-]CCCN2C1.FC(F)(F)c1cc([B-](c2cc(C(F)(F)F)cc(C(F)(F)F)c2)(c2cc(C(F)(F)F)cc(C(F)(F)F)c2)c2cc(C(F)(F)F)cc(C(F)(F)F)c2)cc(C(F)(F)F)c1.FC(F)(F)c1cc([B-](c2cc(C(F)(F)F)cc(C(F)(F)F)c2)(c2cc(C(F)(F)F)cc(C(F)(F)F)c2)c2cc(C(F)(F)F)cc(C(F)(F)F)c2)cc(C(F)(F)F)c1.[W+3]#[W+3]", "note": "[W2(hpp)4^2+ (TFPB^−)2]", "values": [
      {"measurement": "reported E1/2 / observed peak position for W2^5+/4+", "setting": "[4]", "value": "−1.81", "unit": "V"}
    ]},
    {"molecule": "CC1(C)CN2CC(C)(C)C[N+]3=C2[N](C1)[W-2]124([Cl])[N]5CC(C)(C)CN6CC(C)(C)C[N+](=C65)[W-2]31([Cl])([N+]1=C3N(CC(C)(C)C[N]32)CC(C)(C)C1)[N+]1=C2N(CC(C)(C)C[N]24)CC(C)(C)C1", "note": "[compound 1, W2(TMhpp)4Cl2]", "values": [
      {"measurement": "E1/2(1), W2^6+/5+ process", "setting": "[1]", "value": "−0.99", "unit": "V"},
      {"measurement": "E1/2(2), W2^5+/4+ process", "setting": "[1]", "value": "−1.84", "unit": "V"}
    ]},
    {"molecule": "decamethylcobaltocene [(Cp*)2Co]", "values": [
      {"measurement": "ionization energy greater than that of compounds 3 and 4", "setting": "[6]", "value": "more than 1 eV"},
      {"measurement": "oxidation potential less negative than that of compounds 3 and 4", "setting": "[7]", "value": "approximately 0.4 V"},
      {"measurement": "ionization energy (IE)", "setting": "[8]", "value": 4.705, "unit": "eV"},
      {"measurement": "oxidation potential", "setting": "[9]; comparison value", "value": "−1.47", "unit": "V"}
    ]},
    {"molecule": "[Cs]", "note": "[cesium]", "values": [
      {"measurement": "ionization energy (IE)", "setting": "[8]", "value": 3.89, "unit": "eV"}
    ]},
    {"molecule": "W2(TEhpp)4 [compound 4]", "values": [
      {"measurement": "onset ionization energy (IEonset, PESonset)", "setting": "[2]", "value": "3.40±0.05", "unit": "eV"},
      {"measurement": "vertical ionization energy (VIE, PESvertical)", "setting": "[2]", "value": "3.71±0.03", "unit": "eV"},
      {"measurement": "solubility properties compared to decamethylcobaltocene", "setting": "[3]", "value": "compare very favorably"},
      {"measurement": "solubility", "setting": "[3]; [10]", "value": "very soluble"},
      {"measurement": "solubility", "setting": "[3]; hexanes", "value": "significantly more soluble"},
      {"measurement": "solubility", "setting": "[3]; [11]", "value": "very soluble"},
      {"measurement": "decomposition during PES measurement", "setting": "[5]; 317-340° C., about 1 h", "value": "In neither case was there any evidence of decomposition"},
      {"measurement": "decomposition during PES measurement", "setting": "[5]; 317-340° C., about 1 h, listed as W2(TEhpp)4", "value": "without evidence of decomposition"}
    ]},
    {"molecule": "[K]", "note": "[K, potassium]", "values": [
      {"measurement": "E1/2, literature", "setting": "[9]; in THF", "value": "−2.66", "unit": "V"}
    ]}
  ]
}
